Test results from PubChem BioAssay AID179 (DTP/NCI, 2004).
Several values for one entry are separate records, joined by “and”; a condition that tells them apart may be missing. Identical values can stand only once. Activity calls are given as the source filed them.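 The calls were made as follows: active = compounds giving half or more protection of infected cells from virus-caused growth loss, again on retest; inactive = the rest.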 Where a SMILES comes first, the peptide text is derived from it. The star is where a group is joined. Boc = CC(C)(C)OC(=O)*

Test system: CEM cells HIV-1 protection, formazan growth assay
Assay: NCI AIDS Antiviral Assay
Conditions: for IC50: measured here: growth of uninfected CEM cells
Outline: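 Soluble formazan readout of cell growth; CEM cells ± HIV-1; 5 drug concs. ≥50% protection → retest; ≥50% again = moderately active; reproducible 100% = confirmed active.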

Compound | EC50 | IC50 | outcome
O=S1(=O)C[C@@H](O)[C@H](O)CS1 | 16.2 µM | 166 µM | 
O=C(O)[C@H](NS(=O)(=O)c1ccc(F)cc1)c1ccccc1 |  |  | inactive
N#C/C(=C\c1ccccc1)C(=O)c1ccccc1 | > 95.5 µM | > 95.5 µM | 
CCOC(=O)N1CCc2cc(OC)c(OC)cc2/C1=C/c1ccc(OC)c(OC)c1 |  |  | inactive
CNC(=O)N(C)C(=O)c1ccccc1C(=O)N(C)C(=O)NC | > 200 µM | > 200 µM | 
C[Si](C)(C)C#C[I+]c1ccccc1 |  |  | inactive
CCC[CH2][Sn]1([CH2]CCC)[O]CC(CN(C)Cc2ccccc2)[O]1 (stereo not drawn) | > 20.9 µM | 0.138 µM | 
CC1=C(C(=O)N(C(C)C)C(C)C)CC(C(=O)N(C(C)C)C(C)C)=C(C)N1 | > 200 µM | 120 µM | 
CCOC(=O)C1=C(C)OC(=O)[C@@]2(OC)C=C(Cl)[C@@]12C | > 200 µM | > 200 µM | 
CS/C(=N/N=C/c1ccc2ccccc2n1)SS/C(=N/N=C\c1ccc2ccccc2n1)SC | > 200 µM | 178 µM | 
CCN(CCCN(CC)C(=O)Nc1ccccc1)C(=O)Nc1ccccc1 | > 200 µM | 155 µM | 
CCN1C(=O)C(=C/C=C/C=C2/N(C)c3ccccc3C2(C)C)C(=O)N(CC)C1=S | > 200 µM | 18.6 µM | 
CC1C(c2ccccc2)=Nn2c(=O)n(-c3ccccc3)c(=O)n21 (stereo not drawn) | > 200 µM | > 200 µM | 
CC1OC(=O)C2=C1C(=O)CC(C)(C)O2 (stereo not drawn) | > 182 µM | 170 µM | 
CC(C)C(NC(=O)OC(C)(C)C)C(=O)N1CCCC1C(=O)O (stereo not drawn) (Boc-Val-Pro-OH; configuration not given here) | > 200 µM | > 200 µM | 
COC(=O)C(C)(C)C(OP1(=S)N(C)CCN1C)=C(C)C | > 155 µM | > 155 µM | 
O=C(O)C1(Cc2ccccc2)Cc2ccccc2C1 | > 200 µM | > 200 µM | 
O/N=C1/CCCC/C1=C/C=C/c1ccccc1 | > 16.6 µM | > 16.6 µM | 
Oc1c(OCc2nnc(CCCCCCCCc3nnc(COc4ccc5ccccc5c4O)o3)o2)ccc2ccccc12 | > 200 µM | > 200 µM | 
CCOC(=O)CN1C(=O)S/C(=C2\C(=O)N(C)c3ccc(Br)cc32)C1=O | > 200 µM | > 200 µM | 
COc1ccc2cc1Oc1ccc(cc1)C[C@@H]1c3cc(c(OC)cc3CCN1C)Oc1c(OC)c(OC)cc3c1[C@H](C2)N(C)CC3 |  |  | inactive

Compound | EC50 | IC50 | outcome
O=C(NNc1nc2ccc(Cl)cc2s1)c1cnc2n(c1=O)CCS2 | > 200 µM | 102 µM | 
C=CCNC(=O)NCCCC(NC(C)=O)C(=O)NCc1ccccc1 (stereo not drawn) | > 72.4 µM | > 72.4 µM | 
COc1ccc(-n2cnc3c(NC(Cc4ccccc4)C(=O)O)ncnc32)cc1 (stereo not drawn) | > 200 µM | 2 µM | 
O=C1c2c(ccc3c2CCC3)CC12Cc1cc3c(cc1C2)CCC3 | > 200 µM | > 200 µM | 
O=C1N(Cc2ccccc2)C2CSCC2N1Cc1ccccc1 (stereo not drawn) | > 200 µM | 87.1 µM | 
NC1=NCCS1 | > 70.8 µM | > 70.8 µM and 32.4 µM | 
CCN1CCCC(C#N)(c2ccccc2)CC1 (stereo not drawn) | > 933 µM | 501 µM | 
CN1CN(c2ccccc2)C2(CCN(CC(C)(c3ccc(F)cc3)C3OCCCO3)CC2)C1=O (stereo not drawn) | > 200 µM | 107 µM | 
COc1cc(Oc2nc3ccc(C(F)(F)F)cc3nc2-c2ccccc2)cc(OC)c1OC | > 93.3 µM | 57.5 µM | 
CCn1nc2c3c(ncn3C(C)(C)O2)c1=O | > 200 µM | > 200 µM | 
C[C@H]1CCC2C(CN3CCCCC3)C(=O)OC2[C@]2(C)C(=O)CC(N3CCCCC3)C12O (stereo partly drawn) |  |  | inactive
O=C(CCCN1CC=C(n2c(=O)[nH]c3ccccc32)CC1)c1ccc(F)cc1 | > 200 µM | 89.1 µM | 
CC1=CN(c2ccccc2)S2=C1c1sc3c(c1N2c1ccc(Br)cc1)CCCC3 (stereo not drawn) | > 200 µM | > 200 µM | 
O=C(/C=C/c1cccc2ccccc12)c1ccccc1[N+](=O)[O-] | > 200 µM | 3.24 µM | 
O=C(c1cccc(C(=O)N(c2ccccc2)c2ccccc2)n1)N(c1ccccc1)c1ccccc1 | > 11.2 µM | > 11.2 µM | 
CC(=O)NNc1nc(C)c(C(/C=C/c2ccc(NC(C)=O)cc2)=N/NS(=O)(=O)c2ccc(C)cc2)s1 | > 57.5 µM | > 57.5 µM | 
CCOC(=O)C(C(=O)OCC)=C1C=C(c2ccccc2)c2ccccc21 |  |  | inactive
CN(C)c1ccc(/C=C2\C=Cc3ccccc32)cc1Br | > 8.32 µM | > 8.32 µM | 
CCCN(CCCc1ccccc1)CCc1ccc2[nH]c(=S)[nH]c2c1 | > 200 µM | 35.5 µM | 
CCOC(=O)C(NC(=O)CC)(C(F)(F)F)P(=O)(OCC)OCC (stereo not drawn) | > 200 µM | > 200 µM | 
COC(=O)/C(C#N)=C\NC(=S)C(N)=S | > 200 µM | 11.2 µM | 

Compound | EC50 | IC50 | outcome
O=C1CN(CCN2CCOCC2)CC(=O)N2CCCCN12 | > 200 µM | > 200 µM | 
CC(=O)Nc1ccc(S(=O)(=O)N/N=C(\C)CN2C(=O)c3ccccc3C2=O)cc1 | > 229 µM | > 229 µM | 
ClC(Cl)=C1C(=C(Cl)Cl)C(Cl)(Cl)C1(Cl)Cl | > 52.5 µM | 2.82 µM | 
CCN(CC)CCCC(C)Nc1cc(/C=C/c2ccc(Cl)cc2)nc2cc(N(C)C)ccc12 (stereo not drawn) | > 145 µM | 0.871 µM | 
C/C(=C\C=C\C(C)C)C1CCC(C)(NC=O)CC1 (stereo not drawn) |  |  | inactive
O=C1OC(=O)c2c1c(-c1ccccc1)nc1ccccc21 | > 107 µM | > 107 µM | 
CCOC(=O)c1ccc(N=C2C(=S)N(c3ccc(C(=O)OCC)cc3)C(=N)N2/N=C/c2ccccc2)cc1 | > 200 µM | 3.24 µM | 
CC1=CC(=O)c2c(O)cccc2C1=O | > 2 µM | 0.912 µM | 
NC1=NN(c2ccccc2)C(=O)/C1=C\n1c(=S)[nH]c2ccccc21 | > 200 µM | > 200 µM | 
CC(=O)OC1Sc2ccccc2C(=O)N2CCCC12 (stereo not drawn) | > 200 µM | > 200 µM | 
Cc1c(C)c2ccc3c(c2oc1=O)[C@@H](OC(=O)C12CCC(C)(C(=O)O1)C2(C)C)[C@@H](OC(=O)C12CCC(C)(C(=O)O1)C2(C)C)C(C)(C)O3 (stereo partly drawn) | 0.245 µM | 123 µM | 
CCN(CC)C(=O)CCn1cc(F)c(=O)[nH]c1=O | > 977 µM | > 977 µM | 
COc1c2c(nc3ccccc13)-c1cc3c(c(=O)n1C2)COC(=O)C3(O)CC(=O)N1CCOCC1 (stereo not drawn) | > 10 µM | 0.741 µM | 
CCN(CC)CCN1C(=O)c2cccc3cc(N)cc(c23)C1=O | > 200 µM | 8.13 µM | 
COc1cc(/C=C2\C=Cc3ccccc32)ccc1N(C)C | > 36.3 µM | 24 µM | 
Oc1ccc2ccccc2c1OCc1nnc(CCCCCCCCc2nnc(COc3c(O)ccc4ccccc34)o2)o1 | > 200 µM | 47.9 µM | 
CCC(=O)C(C)C(=O)C(=O)NCCNC(=O)C(=O)C(C)C(=O)CC (stereo not drawn) |  |  | inactive
O=C(O)c1onc2cc([N+](=O)[O-])ccc12 | > 1200 µM | 219 µM | 
N#C/C(=C1\SC(=O)CN1c1ccccc1)c1nc2ccccc2o1 | > 200 µM | > 200 µM | 
O=C1C(c2cnc3ccccc3n2)=C(O)c2ccccc21 | > 2.63 µM | > 2.63 µM | 
C=CCCC(O)c1cc(C)c(O)c(C)c1 (stereo not drawn) | > 457 µM | 229 µM | 

Compound | EC50 | IC50 | outcome
[N-]=[N+]=Nc1c([N+](=O)[O-])c(=O)n2c3c(cccc13)CCC2 |  |  | inactive
CC(C)CCC[C@@H](C)C1CCC2[C@@H]3CCC4C[C@@H](CC/C=C/CC[C@H]5CC[C@@]6(C)C(CC[C@@H]7C6CC[C@@]6(C)C7CCC6[C@H](C)CCCC(C)C)C5)CC[C@]4(C)C3CC[C@@]21C (stereo partly drawn) | > 9.55 µM | > 9.55 µM | 
CCOP(=O)(OCC)/C(C#N)=C/c1coc2cc(C)cc(C)c2c1=O | > 200 µM | > 200 µM | 
Cc1ccc(-c2c(C#N)c(-c3ccccc3)c(C#N)c(=O)n2NS(=O)(=O)c2ccc(C)cc2)cc1 | > 200 µM | 57.5 µM | 
COC(=O)C1CCCN1 (stereo not drawn) |  |  | inactive
Cc1cc(=O)cc2sc3c(C)cccc3nc1-2 | > 30.2 µM | > 30.2 µM | 
CCCN=C(NC(=O)c1ccc(Cl)cc1)SC | > 200 µM | > 200 µM | 
Cc1ccc(/C(O)=C/c2nc3ccccc3oc2=O)cc1 | > 200 µM | 55 µM | 
COc1ccccc1NC(=O)C(=O)C1C(=O)Nc2ccccc2S1=O (stereo not drawn) |  |  | inactive
O=C(O)c1ccccc1-n1nc(C(=O)O)c(N=Nc2ccc(/C=C/c3ccc(N=Nc4c(C(=O)O)nn(-c5ccccc5C(=O)O)c4O)cc3S(=O)(=O)O)c(S(=O)(=O)O)c2)c1O.[Cu+2].[Na+] | > 0.479 µM | > 0.479 µM | 
NCCN.NCCN.O=C([O-])C(=O)[O-].[Cl-].[Co+3] |  |  | inactive
Cc1cc(=O)[nH]c2cc(NC(=O)C(C)NC(=O)C(C)NC(=O)C(C)NC(=O)OC(C)(C)C)ccc12 (stereo not drawn) | > 200 µM | > 200 µM | 
Cc1cc(C)nc(NS(=O)(=O)c2ccc(NC(=O)c3ccc(Cl)c4c(Nc5ccc(S(=O)(=O)N=C(N)N)cc5)c5ccccc5nc34)cc2)n1 | > 35.5 µM | 30.9 µM | 
CC(=NNC(=S)Nc1cccc(C)c1)c1cccc(C(C)=NNC(=S)Nc2cccc(C)c2)n1 | > 200 µM | 27.5 µM | 
OCC(O)C(OC1OC(CO)C(O)C(O)C1O)c1nn(-c2ccc(F)cc2)c2nc3cc(Cl)c(Cl)cc3cc12 (stereo not drawn) |  |  | inactive
CC1(C)N=C(C(N)=O)c2[nH]cnc2N1 | > 200 µM | > 200 µM | 
COc1ccc(OC)c(NC(=O)CCC/C(CC(=O)c2ccc(O)c(OC)c2)=N\NC(=O)C[N+](C)(C)C)c1 | > 6.61 µM | > 6.61 µM | 
C#C[C@]1(O)CC[C@H]2[C@@H]3CCC4=C/C(=N/OC(=O)c5cccc6c(=O)c7ccccc7[nH]c56)CC[C@@H]4[C@H]3CC[C@@]21C | > 200 µM | 30.9 µM | 
[Cu+2].[O-]/C(=N\N=C/c1ccccc1F)c1ccncc1.[O-]/C(=N\N=C\c1ccccc1F)c1ccncc1 | > 100 µM | 16.2 µM | 
CCOC(=O)c1[nH]n(-c2ccccc2)c(=O)c1/C=N/C(=S)Nc1c(CC)cccc1CC | > 100 µM | 24.5 µM | 
